From patent publication US10159640B2, “Prebiotic oral care compositions containing amino acids” (COLGATE-PALMOLIVE COMPANY, priority 2013, dated 2018)

Legend:
Assay type in all cases: cell-based
[1] = system: Aggregatibacter actinomycetemcomitans; experiment: Biofilm growth assay in BHI, crystal violet; conditions: control = 1
Procedure: (§1) The increase in biofilm formation of the tested bacteria in response to selected compounds (Met-Pro, Phe-Glu) was investigated by setting up biofilm growth assays in a nutritionally rich medium (brain heart infusion broth (BHI), Oxoid), over 48 hours. Late exponential growth phase liquid cultures were prepared by transferring the respective bacterium from blood agar plates to BHI and overnight incubation at 37° C. in an anaerobic atmosphere for A. viscosus, V. parvula, F. nucleatum, P. gingivalis, P. intermedia, T. forsythia, A. naeslundii, and C. sputigena, and in a 5% CO2 environment for S. salivarius, S. sanguinis, S. mitis, A. actinomycetemcomitans, S. mutans, and S. gordonii. Overnight cultures were transferred to BHI and adjusted to a concentration of 1×10^7 CFU/ml by measuring the optical density at 600 nm (OD600) (BioRad SmartSpec 3000). For each strain, 200 μl of the bacterial suspension was added to a 96-well plate containing 20 μl of the respective di-peptides. Final concentrations of the di-peptides were set to 5, 10, 20 and 25 μmol/ml. […] Additionally, for each bacterium tested, a background control, to correct for background staining, was added. This background control contained the bacterium tested and 0.03 weight % chlorhexidine, as an antiseptic. Plates were incubated as previously described. After 48 hrs the supernatant was removed from the wells of the plates. The wells were washed twice with 1×100 μL PBS (phosphate buffered saline), fixed for 20 minutes with 96% vol. ethanol (96% vol. solution in water) and the biofilm retained at the bottom of the wells was stained with 1 weight % crystal violet (1 weight % solution in water). The bound dye was dissolved with 5% vol. acetic acid (5% vol. solution in water). Quantification of the stained biofilm was performed by measuring the absorbance at 630 nm using a Multiskan Ascent microplate reader (Thermo Scientific).
(§2) The experiment was carried out on three different days (thus providing 3 biological replicas) and each day the experiment was carried out in quadruple (thus providing 4 technical replicas) for each combination of bacterium with dipeptide and for each control. For each day and for each combination, the average (mean) of the values obtained (as detailed above) for the four technical replicas was calculated to provide a single value for each combination on each day. The values shown in Tables 7 to 8, below, are the average (mean) of the three single values obtained for each combination of bacterium with dipeptide.

[2] = system: Fusobacterium nucleatum; experiment: Biofilm growth assay in BHI, crystal violet; conditions: control = 1
Procedure: as §1, §2

[3] = system: Streptococcus mutans; experiment: Biofilm growth assay in BHI, crystal violet; conditions: control = 1
Procedure: as §1, §2

[4] = system: Streptococcus gordonii; experiment: Biofilm growth assay in BHI, crystal violet; conditions: control = 1
Procedure: as §1, §2

[5] = system: Streptococcus salivarius; experiment: Biofilm growth assay in BHI, crystal violet; conditions: control = 1
Procedure: as §1, §2

[6] = system: Tannerella forsythia; experiment: Biofilm growth assay in BHI, crystal violet; conditions: control = 1
Procedure: as §1, §2

[7] = system: Actinomyces naeslundii; experiment: Biofilm growth assay in BHI, crystal violet; conditions: control = 1
Procedure: as §1, §2

[8] = system: Veillonella parvula; experiment: Biofilm growth assay in BHI, crystal violet; conditions: control = 1
Procedure: as §1, §2

[9] = system: Capnocytophaga sputigena; experiment: Biofilm growth assay in BHI, crystal violet; conditions: control = 1
Procedure: as §1, §2

[10] = system: Streptococcus sanguinis; experiment: Biofilm growth assay in BHI, crystal violet; conditions: control = 1
Procedure: as §1, §2

[11] = system: beneficial oral bacteria and pathogenic oral bacteria; experiment: Extent of growth, whole panel: prebiotic effect; conditions: threshold value of 1.25
Excerpt: Substrates that were able to increase the growth (or maximal growth density or extent of growth) of at least one of the above beneficial bacteria while not or only minimally increasing the growth (or maximal growth density) of the pathogenic bacteria are considered to be prebiotic compounds.
The extent of growth of the tested bacteria in response to selected compounds (Met-Pro, Phe-Glu) was investigated by setting up growth curves in a nutritionally rich medium (brain heart infusion broth (BHI), Oxoid), over 48 hours. Late exponential growth phase liquid cultures were prepared by transferring the respective bacterium from blood agar plates to BHI and overnight incubation at 37° C. in an anaerobic atmosphere for A. viscosus, V. parvula, F. nucleatum, P. gingivalis, P. intermedia, T. forsythia, A. naeslundii, and C. sputigena, and in a 5% CO2 environment for S. salivarius, S. sanguinis, S. mitis, A. actinomycetemcomitans, S. mutans, S. sobrinus and S. gordonii. Overnight cultures were transferred to BHI and adjusted to a concentration of 1×10^7 CFU/ml (colony forming units per ml) by measuring the optical density at 600 nm (OD600) (BioRad SmartSpec 3000). For each strain, 200 μl of the bacterial suspension was added to a 96-well plate containing 20 μl of the respective di-peptides. Final concentrations of the di-peptides were set to 5, 10, 20 and 25 μmol/ml. […] Plates were incubated as previously described.
For each combination of bacterium/dipeptide, and for each of their respective controls (i.e. the particular bacterium in the nutritionally rich medium with no dipeptide), the optical density was measured at 630 nm (OD630) at 0 h, 24 h and 48 h (Thermo Scientific Multiskan Ascent). Additionally, the OD630 for combinations of bacterium/dipeptide grown in a 5% CO2 environment were also measured every hour between 0 h and 9 h.
as §2, with “replicas) and on each day” for “replicas) and each day”, “in Tables 5 to 6,” for “in Tables 7 to 8,”, “5 to 6, below, are” for “7 to 8, below, are”
This value was selected in order to exclude low-stimulating metabolites and avoid false positive results.

## Phe-Glu
[1]; 5 μmol/ml
  biofilm growth: OD 630 nm (crystal violet) at 48 hrs divided by OD of control: 0.5867
[1]; 10 μmol/ml
  biofilm growth: OD 630 nm (crystal violet) at 48 hrs divided by OD of control: 0.3454
[1]; 20 μmol/ml
  biofilm growth: OD 630 nm (crystal violet) at 48 hrs divided by OD of control: 0.0481
[1]; 25 μmol/ml
  biofilm growth: OD 630 nm (crystal violet) at 48 hrs divided by OD of control: 0.0212
[2]; 5 μmol/ml
  biofilm growth: OD 630 nm (crystal violet) at 48 hrs divided by OD of control: 0.2553
[2]; 10 μmol/ml
  biofilm growth: OD 630 nm (crystal violet) at 48 hrs divided by OD of control: 0.2232
[2]; 20 μmol/ml
  biofilm growth: OD 630 nm (crystal violet) at 48 hrs divided by OD of control: 0.0056
[2]; 25 μmol/ml
  biofilm growth: OD 630 nm (crystal violet) at 48 hrs divided by OD of control: 0.0112
[3]; 5 μmol/ml
  biofilm growth: OD 630 nm (crystal violet) at 48 hrs divided by OD of control: 0.0781
[3]; 10 μmol/ml
  biofilm growth: OD 630 nm (crystal violet) at 48 hrs divided by OD of control: 0.5693
[3]; 20 μmol/ml
  biofilm growth: OD 630 nm (crystal violet) at 48 hrs divided by OD of control: 1.2009
[3]; 25 μmol/ml
  biofilm growth: OD 630 nm (crystal violet) at 48 hrs divided by OD of control: 0.4072
[4]; 5 μmol/ml
  biofilm growth: OD 630 nm (crystal violet) at 48 hrs divided by OD of control: 1.8315
[4]; 10 μmol/ml
  biofilm growth: OD 630 nm (crystal violet) at 48 hrs divided by OD of control: 1.7019
[4]; 20 μmol/ml
  biofilm growth: OD 630 nm (crystal violet) at 48 hrs divided by OD of control: 0.6462
[4]; 25 μmol/ml
  biofilm growth: OD 630 nm (crystal violet) at 48 hrs divided by OD of control: 0.2237
[5]; 5 μmol/ml
  biofilm growth: OD 630 nm (crystal violet) at 48 hrs divided by OD of control: 1.4007
[5]; 10 μmol/ml
  biofilm growth: OD 630 nm (crystal violet) at 48 hrs divided by OD of control: 1.0359
[5]; 20 μmol/ml
  biofilm growth: OD 630 nm (crystal violet) at 48 hrs divided by OD of control: 0.8978
[5]; 25 μmol/ml
  biofilm growth: OD 630 nm (crystal violet) at 48 hrs divided by OD of control: 0.7342
[6]; 5 μmol/ml
  biofilm growth: OD 630 nm (crystal violet) at 48 hrs divided by OD of control: 0.5744
[6]; 10 μmol/ml
  biofilm growth: OD 630 nm (crystal violet) at 48 hrs divided by OD of control: 0.3083
[6]; 20 μmol/ml
  biofilm growth: OD 630 nm (crystal violet) at 48 hrs divided by OD of control: 0.0188
[6]; 25 μmol/ml
  biofilm growth: OD 630 nm (crystal violet) at 48 hrs divided by OD of control: 0.0254
[7]; 5 μmol/ml
  biofilm growth: OD 630 nm (crystal violet) at 48 hrs divided by OD of control: 0.9914
[7]; 10 μmol/ml
  biofilm growth: OD 630 nm (crystal violet) at 48 hrs divided by OD of control: 0.4234
[7]; 20 μmol/ml
  biofilm growth: OD 630 nm (crystal violet) at 48 hrs divided by OD of control: 0.0174
[7]; 25 μmol/ml
  biofilm growth: OD 630 nm (crystal violet) at 48 hrs divided by OD of control: 0.0067
[8]; 5 μmol/ml
  biofilm growth: OD 630 nm (crystal violet) at 48 hrs divided by OD of control: 0.3257
[8]; 10 μmol/ml
  biofilm growth: OD 630 nm (crystal violet) at 48 hrs divided by OD of control: 0.3136
[8]; 20 μmol/ml
  biofilm growth: OD 630 nm (crystal violet) at 48 hrs divided by OD of control: 0.1638
[8]; 25 μmol/ml
  biofilm growth: OD 630 nm (crystal violet) at 48 hrs divided by OD of control: 0.2969
[9]; 5 μmol/ml
  biofilm growth: OD 630 nm (crystal violet) at 48 hrs divided by OD of control: 0.1909
[9]; 10 μmol/ml
  biofilm growth: OD 630 nm (crystal violet) at 48 hrs divided by OD of control: 0.1079
[9]; 20 μmol/ml
  biofilm growth: OD 630 nm (crystal violet) at 48 hrs divided by OD of control: 0.1578
[9]; 25 μmol/ml
  biofilm growth: OD 630 nm (crystal violet) at 48 hrs divided by OD of control: 0.2648
[10]; 5 μmol/ml
  biofilm growth: OD 630 nm (crystal violet) at 48 hrs divided by OD of control: 1.2254
[10]; 10 μmol/ml
  biofilm growth: OD 630 nm (crystal violet) at 48 hrs divided by OD of control: 1.0551
[10]; 20 μmol/ml
  biofilm growth: OD 630 nm (crystal violet) at 48 hrs divided by OD of control: 0.5417
[10]; 25 μmol/ml
  biofilm growth: OD 630 nm (crystal violet) at 48 hrs divided by OD of control: 0.4820
[11]; 5 μmol/ml
  prebiotic effects (extent of growth): exhibited prebiotic effects
[11]; 10 μmol/ml
  prebiotic effects (extent of growth): exhibited prebiotic effects
